We go through one compound from patent publication US20220308062A1, “METHODS FOR PREDICTING DRUG RESPONSIVENESS IN SAMPLES FROM CANCER SUBJECTS” (Board of Regents, The University of Texas System, priority 2019, published 2022).

Assay type in all cases: cell-based, human
Test [1] relates to A549 and H2009 cells. As to the kind of experiment: Capillary Western immunoassay (WES). Here is the method:
Capillary Western immunoassay. Protein lysates of A549 lung cancer cells were prepared in radioimmunoprecipitation assay buffer (Thermo Fisher Scientific). Proteins with 12-230 kDa were analyzed in the Western immunoassay (WES) Separation Module of the quantitative capillary Western immunoassay system (ProteinSimple, San Jose, Calif.). The following antibodies were used: (i) β-catenin, AXL, AKT, C-RAF, p38 MAPK, MEK1/2, P42/44 MAPK, SMAD2/3, SMAD4, and GAPDH from Cell Signaling Technology (Danvers, Mass.); (ii) p-AXL from R&D Systems (Minneapolis, Minn.); (iii) vimentin, YAP1, TAZ, CK8/18 and CK19 from Novus Biologicals (Centennial, Colo.); (iv) N-cadherin from Abcam (Cambridge); (v) E-cadherin from BD Biosciences (San Jose, Calif.). Protein expression levels were normalized with that of GAPDH.
Capillary Western immunoassay (WES). Protein lysates of A549 and H2009 cells were prepared in radio-immunoprecipitation assay buffer (Thermo Fisher Scientific). Proteins were then analyzed in 12-230 and 66-440 kDa WES separation module of quantitative capillary Western immunoassay system (Protein Simple). The following antibodies were used: 1) AXL, AKT, JNK, p38 MAPK, MEK1/2, P42/44 MAPK, and GAPDH (Cell Signaling Technology); and 2) p-AXL and YAP1 (R&D Systems). Protein expression levels were normalized with GAPDH as loading controls.
Materials and methods. Capillary Western immunoassay (WES). Protein lysates of A549 and H2009 cells were prepared in radio-immunoprecipitation assay buffer (Thermo Fisher Scientific). Proteins were then analyzed in 12-230 and 66-440 kDa WES separation module of quantitative capillary Western immunoassay system (Protein Simple). Antibodies against AXL and GAPDH were (Cell Signaling Technology). Protein expression levels were normalized with GAPDH as loading controls.

Test [2] has as its system A549 and H2009 cells. As to the kind of experiment: Western blot analysis. As to conditions: H2009, traditional western blot (FIG. 8C). As for the experimental part:
Western blot analysis. […] Cell lysates were harvested using RIPA buffer. The concentration of protein lysates was determined by Pierce™ BCA Protein Assay Kit (Thermo fisher). Forty micrograms of the total protein extracts were separated by NuPAGE™ 4-12% Bis-Tris Protein Gels (Thermo fisher) and transferred to PVDF membrane. The membrane was then blocked with 5% of Blotting-Grade Blocker (BioRad) in TBST and probed using primary antibodies including: 1) oncogenic pathways: JAK1, pSTAT3, STAT3, pAKT and pERK1/2 (Cell Signaling Technology; 3344S, 9131S, 9139T, 4060, 4377S); 2) cancer stemness markers: CD133 and ALDH1A1 (Cell Signaling Technology; 64326S and 54135S); and 3) EMT markers: Vimentin (Novus; NBP1-92687), N-cadherin, EpCAM (Abcam; ab71916) and CK8/18 (Novus; NBP2-44930); 4) loading control: GAPDH (Cell Signaling Technology; 2118S). Membrane was incubated in HRP-linked secondary antibodies following dilution with TBST (1:5000) at room temperature for one hour. Blots were developed using Western Lightning Plus-ECL Chemiluminescent Reagents (Perkin Elmer, Waltham, Mass.) and Syngene G:BOX Imaging System.
Background: In western blotting, separated proteins are transferred to a membrane and probed.

Test [3] has as its system A549 cells. The experiment in a line: Atomic force microscopy, A549. As to conditions: A549, 40 nmol/L, 24 hr. An excerpt: Atomic force microscopy. […] Briefly, live cells cultured were imaged in 60 mm dishes with a Nanoscope Catalyst AFM (Bruker, Billerica, Mass.) mounted on a Nikon Ti inverted epifluorescent microscope. […] To collect the nanomechanical phenotypes of single cells immersed in culture media, 30×30 μm images were captured with a resolution of 256×256 pixels using the PeakForce Quantitative Nanomechanical Mapping (QNM) AFM (Bruker, Billerica, Mass.). For imaging, […]-AIR (Bruker, Billerica, Mass.) probes were applied with the nominal spring constant 0.4 N/m. Following the Sneddon model and the Sokolov's rules, nanomechanical parameters were calculated with Nanoscope Analysis software v.1.7 (Bruker, Billerica, Mass.) using retrace images. Images of at least 15 cells representing each tested case in three biological replicates were collected.
Atomic force microscopy (AFM). […] Briefly, live cells cultured in 60 mm dishes were imaged with a Nanoscope Catalyst AFM (Bruker) mounted on a Nikon Ti inverted epifluorescent microscope. […] To collect the nanomechanical phenotypes of single cells immersed in culture media, 30×30 μm images were captured with a resolution of 256×256 pixels using the Peak Force Quantitative Nanomechanical Mapping (QNM) AFM (Bruker). For imaging, […]-AIR probes were used with the nominal spring constant 0.4 N/m. Following the Sneddon model and the Sokolov's rules, nanomechanical parameters were calculated with Nanoscope Analysis software v.1.7 using retrace images.

Test [4] concerns A549 cells. As to the kind of experiment: RNA-seq of TP-0903-treated A549 cells. As to conditions: A549, 40 nmol/L. As for the experimental part: RNA-seq. Total RNA was extracted from TP-0903-treated and AXL-knockdown A549 cells and from respective controls in two biological replicates by using the PureLink RNA Mini Kit (Thermo Fisher Scientific). Sequencing of cDNAs was performed with Illumina HiSeq3000 as per manufacturer's instructions. Paired-end FASTQ files were generated and aligned with the human reference genome GRCh38 by using STAR alignment software. RSEM was applied to quantify gene expression levels, and fragments per kilobase of transcript per million (FPKM) mapped reads were calculated. The different expression levels of genes were compared between control and treatment groups by using RSEM software. […] Both gene sets were used to perform pathway enrichment analysis on Gene Ontology Consortium (http://geneontology.org/) by using Reactome pathway databases in PANTHER [45, 46]. Significant pathways were further analyzed with gene sets downloaded from the Molecular Signatures Database v6.2 (http://software.broadinstitute.org/gsea/msigdb/). Fold changes of candidate genes were calculated on the basis of log FPKM values and used to generate heat maps.
RNA-seq. […] The RSEM software was applied to quantify expression levels, and fragments per kilo base of transcript per million (FPKM) mapped reads were calculated. […]

For the compound `CN1CCN(Cc2ccc(Nc3ncc(Cl)c(Nc4ccccc4S(=O)(=O)N(C)C)n3)cc2)CC1` [TP-0903], in test [1] (A549, 40 nmol/L), the “AXL level (WES)” value is on record as “down-regulated”. Moreover, in test [1] (A549 and H2009, 40 nM), the “cytokeratin 19 (CK19) level” value is given as “noticeable increase” and the vimentin level result was “minor decrease”. Also, the “protein levels of AXL, phosphorylated AXL, SMAD2/3, SMAD4, YAP1, and TAZ” value in test [1] (A549 and H2009, 40 nmol/L) is given as “reduced”. Further, the “SLUG transcription factor levels” value in test [2] was “significantly decreased”. Moreover, in test [3], the decreased deformation is recorded as 25%, the increase in stiffness is 3 fold and the increased adhesion was 50%. The “IL-11 expression (RNA-seq)” value in test [4] was “down-regulated significantly”. For the same compound, in test [4] (listed as TP0903), the “IL-11 expression (RNA-seq)” value is on record as “markedly downregulated”.
